# Measurements reported in ChEMBL document CHEMBL1201862, “PubChem BioAssay data set” (2004).
#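 Interpolation was linear, between the two tested concentrations surrounding the appropriate level; five concentrations were tested over 48 hours in 96-well plates. The concentration for 50% growth inhibition is given as GI50.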 Activity calls are given as the source filed them. Rule as the data show it: active = GI50 up to about 1.1 µM and inactive = higher.
# Tests used:
# Assay in all cases: NCI anticancer screen, dose series, 48 h
# NCI-H226 = system: NCI-H226
# OVCAR-5 = system: OVCAR-5
# 786-0 = system: 786-0
# MDA-N = system: MDA-N
# M14 = system: M14
# DU-145 = system: DU-145
# SK-MEL-2 = system: SK-MEL-2
# COLO 205 = system: COLO 205
# UACC-257 = system: UACC-257
# A498 = system: A498
# HCC 2998 = system: HCC 2998
# RXF 393 = system: RXF 393
# NCI/ADR-RES = system: NCI/ADR-RES
# HCT-116 = system: HCT-116
# TK-10 = system: TK-10
# SNB-75 = system: SNB-75
# SW-620 = system: SW-620
# Hs-578T = system: Hs-578T
# UO-31 = system: UO-31
# HL-60 = system: HL-60
Compound,GI50 (NCI-H226),GI50 (OVCAR-5),GI50 (786-0),GI50 (MDA-N),GI50 (M14),GI50 (DU-145),GI50 (SK-MEL-2),GI50 (COLO 205),GI50 (UACC-257),GI50 (A498),GI50 (HCC 2998),GI50 (RXF 393),GI50 (NCI/ADR-RES),GI50 (HCT-116),GI50 (TK-10),GI50 (SNB-75),GI50 (SW-620),GI50 (Hs-578T),GI50 (UO-31),GI50 (HL-60)
COc1ccccc1/C=C/c1nc2ccccc2o1,> 10 µM (inactive),> 10 µM (inactive),> 10 µM (inactive),> 10 µM (inactive),> 10 µM (inactive),> 10 µM (inactive),> 10 µM (inactive),> 10 µM (inactive),> 10 µM (inactive),> 10 µM (inactive),> 10 µM (inactive),> 10 µM (inactive),> 10 µM (inactive),> 10 µM (inactive),> 10 µM (inactive),> 10 µM (inactive),> 10 µM (inactive),> 10 µM (inactive),–,–
COC(=O)[C@]1(c2cc3ccccc3n2S(=O)(=O)c2ccccc2)CC2CN(C(=O)OCc3ccccc3)C1C1OC(C)(C)OC21 (stereo partly drawn),93.1 µM (inactive),> 100 µM (inactive),> 100 µM (inactive),> 100 µM (inactive),80.5 µM (inactive),> 100 µM (inactive),> 100 µM (inactive),> 100 µM (inactive),> 100 µM (inactive),–,> 100 µM (inactive),> 100 µM (inactive),> 100 µM (inactive),> 100 µM (inactive),> 100 µM (inactive),80.4 µM (inactive),> 100 µM (inactive),> 100 µM (inactive),> 100 µM (inactive),> 100 µM (inactive)
COC(=O)C(COC(=O)/C=C/c1ccc(OC(C)=O)c(OC(C)=O)c1)OC(=O)/C=C/c1ccc(OC(C)=O)c(OC(C)=O)c1 (stereo not drawn),24.5 µM (inactive),13 µM (inactive),11.8 µM (inactive),9.73 µM (inactive),7.8 µM (inactive),12.1 µM (inactive),12.2 µM (inactive),15.9 µM (inactive),15.7 µM (inactive),16.5 µM (inactive),17.5 µM (inactive),12.3 µM (inactive),20 µM (inactive),4.14 µM (inactive),18.6 µM (inactive),–,6.27 µM (inactive),13.7 µM (inactive),10 µM (inactive),–
Oc1cc(-c2ccccc2)nc2c(S)cccc12,17.2 µM (inactive),> 100 µM (inactive),> 100 µM (inactive),> 100 µM (inactive),> 100 µM (inactive),> 100 µM (inactive),–,> 100 µM (inactive),> 100 µM (inactive),–,> 100 µM (inactive),35.9 µM (inactive),> 100 µM (inactive),> 100 µM (inactive),> 100 µM (inactive),23.5 µM (inactive),> 100 µM (inactive),> 100 µM (inactive),–,97.9 µM (inactive)
Cc1ccc(C(=O)O)cc1S(=O)(=O)Nn1cnc2ccc(S(=O)(=O)Nc3ccccc3C(=O)O)cc2c1=O,83.8 µM (inactive),54.6 µM (inactive),> 100 µM (inactive),47.3 µM (inactive),18.3 µM (inactive),> 100 µM (inactive),61 µM (inactive),31.6 µM (inactive),> 100 µM (inactive),–,> 100 µM (inactive),–,> 100 µM (inactive),46.1 µM (inactive),> 100 µM (inactive),> 100 µM (inactive),> 100 µM (inactive),> 100 µM (inactive),46.1 µM (inactive),> 100 µM (inactive)
COC(=O)C1=C(C(=O)OC)C2OC1C1C2C2(C)C(C)=C(C)C1(C)[S+]2[O-] (stereo not drawn),8.02 µM (inactive),15.5 µM (inactive),4.65 µM (inactive),11.3 µM (inactive),8.59 µM (inactive),6.62 µM (inactive),10.8 µM (inactive),6.43 µM (inactive),12.4 µM (inactive),27.5 µM (inactive),20.1 µM (inactive),3.37 µM (inactive),23.7 µM (inactive),6.08 µM (inactive),12.2 µM (inactive),19.5 µM (inactive),4.14 µM (inactive),20.8 µM (inactive),4.21 µM (inactive),–
CSc1ccc(NC(=O)CCl)cc1,> 10 µM (inactive),3.33 µM (inactive),6.38 µM (inactive),4.84 µM (inactive),1.92 µM (inactive),> 10 µM (inactive),1.81 µM (inactive),3.02 µM (inactive),6.18 µM (inactive),–,2.18 µM (inactive),3.17 µM (inactive),3.24 µM (inactive),3.03 µM (inactive),> 10 µM (inactive),2.53 µM (inactive),8.32 µM (inactive),3.1 µM (inactive),2.23 µM (inactive),3.33 µM (inactive)
CCOc1ccc(N/C(=C(/C(Cl)=C(/Cl)NCCO)[N+](=O)[O-])n2nnc3ccccc32)cc1,> 100 µM (inactive),35.6 µM (inactive),29.6 µM (inactive),28.9 µM (inactive),30.4 µM (inactive),12.9 µM (inactive),35 µM (inactive),16.1 µM (inactive),41.3 µM (inactive),31 µM (inactive),79.4 µM (inactive),16.2 µM (inactive),25.2 µM (inactive),37.7 µM (inactive),–,60.1 µM (inactive),19.2 µM (inactive),15.2 µM (inactive),19.5 µM (inactive),–
COC(OC)[C@@H]1OC[C@@H](O)[C@@H]1n1cnc2c(N)ncnc21,> 100 µM (inactive),> 100 µM (inactive),> 100 µM (inactive),> 100 µM (inactive),> 100 µM (inactive),> 100 µM (inactive),> 100 µM (inactive),> 100 µM (inactive),> 100 µM (inactive),> 100 µM (inactive),> 100 µM (inactive),> 100 µM (inactive),> 100 µM (inactive),> 100 µM (inactive),> 100 µM (inactive),> 100 µM (inactive),> 100 µM (inactive),> 100 µM (inactive),> 100 µM (inactive),–
NC(=O)NNC(=O)c1nc[nH]c1[N+](=O)[O-],> 100 µM (inactive),> 100 µM (inactive),> 100 µM (inactive),> 100 µM (inactive),> 100 µM (inactive),> 100 µM (inactive),> 100 µM (inactive),> 100 µM (inactive),> 100 µM (inactive),> 100 µM (inactive),> 100 µM (inactive),> 100 µM (inactive),> 100 µM (inactive),> 100 µM (inactive),> 100 µM (inactive),> 100 µM (inactive),> 100 µM (inactive),> 100 µM (inactive),> 100 µM (inactive),–
Cc1cnc2nc(-c3sccc3C)cc(O)c2c1,4.14 µM (inactive),> 24 µM (inactive),4.1 µM (inactive),0.361 µM (active),2.25 µM (inactive),4.74 µM (inactive),3.4 µM (inactive),3.21 µM (inactive),8.38 µM (inactive),23.4 µM (inactive),6.07 µM (inactive),3.42 µM (inactive),2.31 µM (inactive),3.33 µM (inactive),> 33.7 µM (inactive),4.32 µM (inactive),1.91 µM (inactive),2.3 µM (inactive),6.25 µM (inactive),–
